Assay results published in US20080268044A1, “Novel Process and Formulations” (Glaxo Group Limited, priority 2005, published 2008).

Test: Comparison of salt forms (solubility, stability)
Format: physicochemical

Cc1cc(F)ccc1-c1nc(NC(CO)CO)nc2c1ccc(=O)n2-c1c(F)cccc1F [sulphate, 8-(2,6-difluorophenyl)-4-(4-fluoro-2-methylphenyl)-2-{[2-hydroxy-1-(hydroxymethyl)ethyl]amino}pyrido[2,3-d]pyrimidin-7(8H)-one]
stability of salt forms (comparison): less stable than the other salt forms
